Where a name gives a salt, the structure may show the parent alone.

In one assay the target is T1, human 5-HT3 serotonin receptors (Homo sapiens, UniProt P46098).
T1 sequence (P46098 24-478): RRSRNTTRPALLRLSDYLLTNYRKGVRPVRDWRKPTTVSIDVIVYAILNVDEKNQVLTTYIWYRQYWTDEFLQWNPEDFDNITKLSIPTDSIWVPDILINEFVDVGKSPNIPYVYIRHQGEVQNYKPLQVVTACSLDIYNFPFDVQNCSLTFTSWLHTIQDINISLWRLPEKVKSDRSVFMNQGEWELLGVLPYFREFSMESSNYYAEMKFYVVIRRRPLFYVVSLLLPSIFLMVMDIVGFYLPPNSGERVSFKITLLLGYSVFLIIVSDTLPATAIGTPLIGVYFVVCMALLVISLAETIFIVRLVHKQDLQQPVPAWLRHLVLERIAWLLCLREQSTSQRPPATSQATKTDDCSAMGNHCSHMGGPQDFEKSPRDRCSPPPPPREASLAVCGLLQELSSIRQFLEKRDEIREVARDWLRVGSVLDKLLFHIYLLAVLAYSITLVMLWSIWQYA
As to the kind of experiment: biochemical. It counts as binding.
Conditions: not given
A word on the Ki: it is the dissociation constant of the complex between target and ligand, obtained from inhibition or displacement. In the case of `c1ccc(NC2=NOC3(C2)CN2CCC3CC2)cc1` (single isomer, unassigned) [Compound 1-P1, N-phenyl-4H-1′-azaspiro[isoxazole-5,3′-bicyclo[2.2.2]octan]-3-amine], the Ki was 8.4 nM. Take `Clc1ccc(NC2=NOC3(C2)CN2CCC3CC2)cc1` (single isomer, unassigned) [Compound 20-P1, N-(4-chlorophenyl)-4H-1′-azaspiro[isoxazole-5,3′-bicyclo[2.2.2]octan]-3-amine]: affinity was put at a Ki of 69 nM. `Clc1ccc(NC2=NOC3(C2)CN2CCC3CC2)cc1Cl` (single isomer, unassigned) [Compound 21-P1, N-(3,4-dichlorophenyl)-4H-1′-azaspiro[isoxazole-5,3′-bicyclo[2.2.2]octan]-3-amine]: the inhibitory constant (Ki) was 41.5 nM. In turn, `Clc1ccc(NC2=NO[C@@]3(C2)CN2CCC3CC2)cc1` [(R)-20, (R)—N-(4-chlorophenyl)-4H-1′-azaspiro[isoxazole-5,3′-bicyclo[2.2.2]octan]-3-amine hydrochloride] had an inhibition constant Ki of 110 nM.

With `Clc1cccc(NC2=NO[C@@]3(C2)CN2CCC3CC2)c1` [(R)-34, (R)—N-(3-chlorophenyl)-4H-1′-azaspiro[isoxazole-5,3′-bicyclo[2.2.2]octan]-3-amine hydrochloride], the Ki came out at 12 nM.

The assay is the same for the next values; noted with them: CHO cell membranes expressing human 5-HT3 receptors, [3H]BRL 43694, 120 min at room temperature; read-out: h-5HT3 Ki.
On to `c1ccc2c(NC3=NOC4(C3)CN3CCC4CC3)n[nH]c2c1` (racemic) [Compound 5-P1, N-(1H-indazol-3-yl)-4′H-4-azaspiro[bicyclo[2.2.2]octane-2,5′-isoxazol]-3′-amine], for which the Ki was found to be 750 nM. The same measure, in the same setting: then `c1ccc2sc(NC3=NOC4(C3)CN3CCC4CC3)cc2c1` (racemic) [rac-12, (+/−)-N-(benzo[b]thiophen-2-yl)-4H-1′-azaspiro[isoxazole-5,3′-bicyclo[2.2.2]octan]-3-amine], with 1800 nM. In the case of `c1ccc2cc(NC3=NOC4(C3)CN3CCC4CC3)ncc2c1` (single isomer, unassigned) [Compound 2-P2, N-(isoquinolin-3-yl)-4H-1′-azaspiro[isoxazole-5,3′-bicyclo[2.2.2]octan]-3-amine], the Ki is 810 nM. With `c1ccc2sc(NC3=NOC4(C3)CN3CCC4CC3)nc2c1` (single isomer, unassigned) [Compound 3-P2, N-(benzo[d]thiazol-2-yl)-4H-1′-azaspiro[isoxazole-5,3′-bicyclo[2.2.2]octan]-3-amine], the inhibition constant Ki stood at 350 nM.

As to `COc1ccc2nc(NC3=NOC4(C3)CN3CCC4CC3)sc2c1` (single isomer, unassigned) [Compound 4-P2, N-(6-methoxybenzo[d]thiazol-2-yl)-4H-1′-azaspiro[isoxazole-5,3′-bicyclo[2.2.2]octan]-3-amine], the Ki was more than 10000 nM. Same read-out and setting: then `Clc1ccc2sc(NC3=NOC4(C3)CN3CCC4CC3)nc2c1` (single isomer, unassigned) [Compound 9-P2, N-(5-chlorobenzo[d]thiazol-2-yl)-4H-1′-azaspiro[isoxazole-5,3′-bicyclo[2.2.2]octan]-3-amine], with more than 10000 nM; and `Clc1ccc2nc(NC3=NOC4(C3)CN3CCC4CC3)sc2c1` (single isomer, unassigned) [Compound 10-P2, N-(6-chlorobenzo[d]thiazol-2-yl)-4H-1′-azaspiro[isoxazole-5,3′-bicyclo[2.2.2]octan]-3-amine], with more than 10000 nM. Still for that read-out and setting: next, `c1ccc2oc(NC3=NOC4(C3)CN3CCC4CC3)nc2c1` (single isomer, unassigned) [Compound 13-P1, N-(benzo[d]oxazol-2-yl)-4H-1′-azaspiro[isoxazole-5,3′-bicyclo[2.2.2]octan]-3-amine]: 2400 nM. Turning to `c1cc2nc(NC3=NOC4(C3)CN3CCC4CC3)sc2cc1C1CC1` (single isomer, unassigned) [Compound 15-P1, N-(6-cyclopropylbenzo[d]thiazol-2-yl)-4H-1′-azaspiro[isoxazole-5,3′-bicyclo[2.2.2]octan]-3-amine], the Ki was more than 10000 nM.

With `Clc1ccc2cc(NC3=NOC4(C3)CN3CCC4CC3)ncc2c1` (single isomer, unassigned) [Compound 19-P2, N-(7-chloroisoquinolin-3-yl)-4H-1′-azaspiro[isoxazole-5,3′-bicyclo[2.2.2]octan]-3-amine], the Ki was more than 10000 nM.

`Clc1cccc2nc(NC3=NO[C@@]4(C3)CN3CCC4CC3)sc12` [(R)-11, (R)—N-(7-chlorobenzo[d]thiazol-2-yl)-4H-1′-azaspiro[isoxazole-5,3′-bicyclo[2.2.2]octan]-3-amine]: the inhibition constant (Ki) stood at 305 nM.

Turning to `Clc1ccc2cnc(NC3=NO[C@@]4(C3)CN3CCC4CC3)cc2c1` [(R)-18, (R)—N-(6-chloroisoquinolin-3-yl)-4H-1′-azaspiroksoxazole-5,3^1-bicyclo[2.2.2]octan1-3-amine hydrochloride], the inhibitory constant (Ki) is more than 10000 nM. In the case of `Clc1ccc2cc(NC3=NO[C@@]4(C3)CN3CCC4CC3)ncc2c1` [(R)-19, (R)—N-(7-chloroisoquinolin-3-yl)-4H-1′-azaspiro[isoxazole-5,3′-bicyclo[2.2.2]octan]-3-amine hydrochloride], the Ki was more than 10000 nM. Take `c1ccc2nc(NC3=NO[C@@]4(C3)CN3CCC4CC3)ncc2c1` [(R)-22, (R)—N-(quinazolin-2-yl)-4H-1′-azaspiro[isoxazole-5,3′-bicyclo[2.2.2]octan]-3-amine hydrochloride]: the Ki stood at 5200 nM. Consider `Clc1cccc2cc(NC3=NO[C@@]4(C3)CN3CCC4CC3)ncc12` [(R)-23, (R)—N-(8-chloroisoquinolin-3-yl)-4H-1′-azaspiroksoxazole-5,3^1-bicyclo[2.2.2]octan1-3-amine hydrochloride], for which the Ki came to 1200 nM.

Turning to `Clc1cccc2cnc(NC3=NO[C@@]4(C3)CN3CCC4CC3)cc12` [(R)-24, (R)—N -(5-chloroisoquinolin-3-yl)-4H-1′-azaspiroksoxazole-5,3′-bicyclo[2.2.2]octan1-3-amine hydrochloride], the Ki is 260 nM. Consider `Cc1ccc2sc(NC3=NO[C@@]4(C3)CN3CCC4CC3)nc2c1` [(R)-25, (R)—N -(5-methylbenzo[d]thiazol-2-yl)-4H-1′-azaspiro[isoxazole-5,3′-bicyclo[2.2.2]octan]-3-amine hydrochloride], for which the Ki worked out at 4200 nM. Still for that read-out and setting: next, `c1cc2sc(NC3=NO[C@@]4(C3)CN3CCC4CC3)nc2cc1C1CC1` [(R)-26, (R)—N -(5-cyclopropylbenzo[d]thiazol-2-yl)-4H-1′-azaspiro[isoxazole-5,3′-bicyclo[2.2.2]octan]-3-amine hydrochloride]: 3100 nM.

Turning to `Fc1ccc2sc(NC3=NO[C@@]4(C3)CN3CCC4CC3)nc2c1` [(R)-27, (R)—N-(5-fluorobenzo[d]thiazol-2-yl)-4H-1′-azaspiro[isoxazole-5,3′-bicyclo[2.2.2]octan]-3-amine hydrochloride], the Ki is 5700 nM.

In the case of `Clc1cc2nc(NC3=NO[C@@]4(C3)CN3CCC4CC3)sc2cc1Cl` [(R)-30, (R)—N-(5 ,6 - dichlor obenzo[d]thiazol-2-yl)-4H-1′-azaspiro[isoxazole-5,3′-bicyclo[2.2.2]octan]-3-amine hydrochloride], the Ki was more than 10000 nM. Still for that read-out and setting: then `Cc1cc2ccc(NC3=NO[C@@]4(C3)CN3CCC4CC3)cc2o1` [(R)-40, (R)—N-(2-methylbenzofuran-6-yl)-4H-1′-azaspiro[isoxazole-5,3′-bicyclo[2.2.2]octan]-3-amine hydrochloride], with more than 10000 nM.
